# How the values were obtained:
# [1] = target: Calcium/calmodulin-dependent protein kinase type 1 (Homo sapiens) (UniProt Q14012); assay: Inhibition of CaMK1 at 1 uM; values are per cent of control
# [2] = target: T1, Cytoplasmic tyrosine-protein kinase BMX (Homo sapiens) (UniProt P51813); assay: Inhibition of Bmx at 1 uM; values are per cent of control
# T1 sequence (whole entry): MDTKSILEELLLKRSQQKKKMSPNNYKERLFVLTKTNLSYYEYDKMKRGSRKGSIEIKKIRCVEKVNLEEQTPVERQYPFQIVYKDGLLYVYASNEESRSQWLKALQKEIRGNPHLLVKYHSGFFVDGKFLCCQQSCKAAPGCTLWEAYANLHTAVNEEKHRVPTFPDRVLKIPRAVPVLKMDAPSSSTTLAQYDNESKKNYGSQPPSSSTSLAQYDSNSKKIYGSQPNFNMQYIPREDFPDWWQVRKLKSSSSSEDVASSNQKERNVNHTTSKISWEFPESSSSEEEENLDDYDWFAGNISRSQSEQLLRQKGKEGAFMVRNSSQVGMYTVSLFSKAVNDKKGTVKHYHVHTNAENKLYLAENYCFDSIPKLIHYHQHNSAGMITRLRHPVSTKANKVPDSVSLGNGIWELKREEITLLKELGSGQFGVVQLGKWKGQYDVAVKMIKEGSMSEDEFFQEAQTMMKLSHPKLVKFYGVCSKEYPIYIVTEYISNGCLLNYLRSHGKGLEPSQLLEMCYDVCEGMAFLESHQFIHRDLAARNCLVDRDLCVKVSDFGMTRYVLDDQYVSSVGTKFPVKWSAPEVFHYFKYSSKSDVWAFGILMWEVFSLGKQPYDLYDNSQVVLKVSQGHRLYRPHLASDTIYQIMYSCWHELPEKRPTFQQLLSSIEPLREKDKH
# [3] = target: Dual specificity mitogen-activated protein kinase kinase 1 (Homo sapiens) (UniProt Q02750); assay: Inhibition of MEK1 at 0.1 uM; values are per cent of control
# [4] = target: Fibroblast growth factor receptor 2 (Homo sapiens) (UniProt P21802); assay: Inhibition of FGFR2 at 1 uM; values are per cent of control
# [5] = Inhibition of PKA at 1 uM; values are per cent of control
# [6] = target: T2, Serine/threonine-protein kinase Sgk1 (Homo sapiens) (UniProt O00141); assay: Inhibition of SGK at 0.1 uM; values are per cent of control
# T2 sequence (whole entry): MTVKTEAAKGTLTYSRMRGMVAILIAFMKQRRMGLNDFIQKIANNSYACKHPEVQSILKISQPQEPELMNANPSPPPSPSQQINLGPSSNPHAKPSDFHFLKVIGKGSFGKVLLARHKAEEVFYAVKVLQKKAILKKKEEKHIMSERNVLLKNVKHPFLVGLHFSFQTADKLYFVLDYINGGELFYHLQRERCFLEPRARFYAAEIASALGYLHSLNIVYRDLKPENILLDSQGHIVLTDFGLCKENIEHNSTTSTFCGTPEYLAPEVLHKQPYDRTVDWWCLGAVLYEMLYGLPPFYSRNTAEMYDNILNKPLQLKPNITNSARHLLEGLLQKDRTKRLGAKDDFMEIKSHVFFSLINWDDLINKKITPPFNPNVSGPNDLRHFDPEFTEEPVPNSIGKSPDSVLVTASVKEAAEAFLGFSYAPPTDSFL
# [7] = target: Fibroblast growth factor receptor 4 (Homo sapiens) (UniProt P22455); assay: Inhibition of FGFR4 at 1 uM; values are per cent of control
# [8] = target: T3, Activin receptor type-1B (Homo sapiens) (UniProt P36896); assay: Inhibition of ALK4 at 0.1 uM; values are per cent of control
# T3 sequence (whole entry): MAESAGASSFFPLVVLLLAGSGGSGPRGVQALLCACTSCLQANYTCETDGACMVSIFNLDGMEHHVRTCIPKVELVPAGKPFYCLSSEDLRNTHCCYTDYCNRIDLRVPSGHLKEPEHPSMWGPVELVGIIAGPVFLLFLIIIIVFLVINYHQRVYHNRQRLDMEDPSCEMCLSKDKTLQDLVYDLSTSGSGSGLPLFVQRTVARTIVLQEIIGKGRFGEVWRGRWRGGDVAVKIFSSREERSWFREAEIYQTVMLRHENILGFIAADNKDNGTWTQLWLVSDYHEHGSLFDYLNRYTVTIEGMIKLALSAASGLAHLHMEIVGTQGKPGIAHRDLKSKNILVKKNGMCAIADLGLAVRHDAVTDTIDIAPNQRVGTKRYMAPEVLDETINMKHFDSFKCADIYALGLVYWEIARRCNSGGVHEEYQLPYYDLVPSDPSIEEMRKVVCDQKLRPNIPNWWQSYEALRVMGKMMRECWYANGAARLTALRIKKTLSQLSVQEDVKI
# [9] = target: RAC-beta serine/threonine-protein kinase (Homo sapiens) (UniProt P31751); assay: Inhibition of PKBbeta at 1 uM; values are per cent of control
# Chain of RAC-beta serine/threonine-protein kinase (Homo sapiens) (P31751 whole entry): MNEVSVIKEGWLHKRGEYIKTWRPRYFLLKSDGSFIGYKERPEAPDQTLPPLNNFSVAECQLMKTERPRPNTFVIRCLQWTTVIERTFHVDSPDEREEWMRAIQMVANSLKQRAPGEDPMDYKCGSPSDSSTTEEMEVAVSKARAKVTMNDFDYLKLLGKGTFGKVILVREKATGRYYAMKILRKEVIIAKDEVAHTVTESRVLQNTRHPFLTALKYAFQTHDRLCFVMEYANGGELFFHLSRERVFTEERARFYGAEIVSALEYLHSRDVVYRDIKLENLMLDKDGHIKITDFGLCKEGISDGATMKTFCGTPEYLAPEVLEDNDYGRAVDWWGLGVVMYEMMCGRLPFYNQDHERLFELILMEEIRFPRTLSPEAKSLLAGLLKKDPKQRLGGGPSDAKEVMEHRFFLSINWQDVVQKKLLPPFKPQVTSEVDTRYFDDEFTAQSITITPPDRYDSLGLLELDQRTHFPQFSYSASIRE
# Chain of Fibroblast growth factor receptor 2 (Homo sapiens) (P21802 22-821 limits assumed): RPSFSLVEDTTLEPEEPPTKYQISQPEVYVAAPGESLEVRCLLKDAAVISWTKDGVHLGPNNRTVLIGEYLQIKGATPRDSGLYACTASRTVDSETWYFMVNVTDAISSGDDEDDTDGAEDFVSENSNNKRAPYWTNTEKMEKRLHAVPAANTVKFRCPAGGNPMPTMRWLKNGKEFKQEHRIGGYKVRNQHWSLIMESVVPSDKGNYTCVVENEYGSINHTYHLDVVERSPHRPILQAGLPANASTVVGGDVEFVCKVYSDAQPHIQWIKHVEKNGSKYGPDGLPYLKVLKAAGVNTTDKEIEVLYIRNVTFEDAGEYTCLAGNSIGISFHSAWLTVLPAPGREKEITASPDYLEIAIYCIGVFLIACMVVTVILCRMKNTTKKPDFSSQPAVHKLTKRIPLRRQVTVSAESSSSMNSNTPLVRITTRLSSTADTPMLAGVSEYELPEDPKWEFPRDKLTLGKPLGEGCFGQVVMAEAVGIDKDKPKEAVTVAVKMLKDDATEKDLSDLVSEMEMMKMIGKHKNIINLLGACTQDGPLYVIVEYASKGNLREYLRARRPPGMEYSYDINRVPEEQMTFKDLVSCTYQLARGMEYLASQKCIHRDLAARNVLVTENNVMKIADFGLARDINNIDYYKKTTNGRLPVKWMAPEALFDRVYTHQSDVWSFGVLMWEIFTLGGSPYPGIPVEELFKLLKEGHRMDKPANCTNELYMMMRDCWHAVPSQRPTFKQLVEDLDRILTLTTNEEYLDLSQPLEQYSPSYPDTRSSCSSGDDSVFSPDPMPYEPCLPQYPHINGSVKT
# Chain of Fibroblast growth factor receptor 4 (Homo sapiens) (P22455 22-802 limits assumed): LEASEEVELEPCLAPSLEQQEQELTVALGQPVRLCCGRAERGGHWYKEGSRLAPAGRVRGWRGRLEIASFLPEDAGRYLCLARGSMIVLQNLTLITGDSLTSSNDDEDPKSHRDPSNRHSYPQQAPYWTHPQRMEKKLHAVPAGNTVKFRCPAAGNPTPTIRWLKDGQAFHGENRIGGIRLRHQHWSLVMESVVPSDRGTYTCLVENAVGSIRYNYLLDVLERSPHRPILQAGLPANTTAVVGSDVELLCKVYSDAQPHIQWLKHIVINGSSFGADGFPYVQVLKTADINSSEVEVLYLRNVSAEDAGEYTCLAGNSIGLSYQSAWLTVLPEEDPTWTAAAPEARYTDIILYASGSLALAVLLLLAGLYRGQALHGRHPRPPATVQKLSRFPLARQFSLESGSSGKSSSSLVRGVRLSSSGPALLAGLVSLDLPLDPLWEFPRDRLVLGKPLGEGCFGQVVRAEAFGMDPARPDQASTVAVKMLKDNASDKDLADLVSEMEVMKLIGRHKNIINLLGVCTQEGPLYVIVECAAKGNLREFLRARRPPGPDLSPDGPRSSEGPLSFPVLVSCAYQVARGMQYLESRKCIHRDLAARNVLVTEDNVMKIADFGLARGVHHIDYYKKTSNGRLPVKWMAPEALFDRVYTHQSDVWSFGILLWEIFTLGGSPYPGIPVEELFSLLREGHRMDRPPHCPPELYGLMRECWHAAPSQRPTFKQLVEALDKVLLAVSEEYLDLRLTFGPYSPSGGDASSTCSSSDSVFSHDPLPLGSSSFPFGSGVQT
# Chain of Dual specificity mitogen-activated protein kinase kinase 1 (Homo sapiens) (Q02750 whole entry): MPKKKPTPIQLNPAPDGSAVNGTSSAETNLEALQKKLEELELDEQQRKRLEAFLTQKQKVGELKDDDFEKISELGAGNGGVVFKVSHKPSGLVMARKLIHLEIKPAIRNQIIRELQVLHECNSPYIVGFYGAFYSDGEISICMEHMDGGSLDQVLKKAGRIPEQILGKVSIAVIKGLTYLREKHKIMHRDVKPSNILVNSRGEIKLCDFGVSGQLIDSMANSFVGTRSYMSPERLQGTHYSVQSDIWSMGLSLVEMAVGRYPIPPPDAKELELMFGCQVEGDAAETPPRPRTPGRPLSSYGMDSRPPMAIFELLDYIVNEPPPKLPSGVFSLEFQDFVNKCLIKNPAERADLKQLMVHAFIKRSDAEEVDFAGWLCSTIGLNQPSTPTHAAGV
# Chain of Calcium/calmodulin-dependent protein kinase type 1 (Homo sapiens) (Q14012 whole entry, looked up): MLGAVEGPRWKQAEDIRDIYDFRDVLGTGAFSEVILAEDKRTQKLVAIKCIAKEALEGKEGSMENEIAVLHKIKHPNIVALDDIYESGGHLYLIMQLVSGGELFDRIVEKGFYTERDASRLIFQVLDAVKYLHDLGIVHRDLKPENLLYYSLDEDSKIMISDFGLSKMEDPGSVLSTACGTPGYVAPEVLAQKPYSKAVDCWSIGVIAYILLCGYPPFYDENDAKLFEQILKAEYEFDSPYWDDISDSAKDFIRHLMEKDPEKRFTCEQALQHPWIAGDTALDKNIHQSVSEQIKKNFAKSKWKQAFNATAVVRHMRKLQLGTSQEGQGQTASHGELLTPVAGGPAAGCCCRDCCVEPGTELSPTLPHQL
residual activity [1],residual activity [2],residual activity [3],residual activity [4],residual activity [5],residual activity [6],residual activity [7],residual activity [8],residual activity [9],Structure (SMILES)
78%,8%,96%,4%,5%,121%,10%,87%,85%,Cc1ccc2cc(-c3n[nH]c4ccc(NC5CCN(Cc6ccccc6)CC5)cc34)[nH]c2c1
24%,-7%,51%,1%,6%,63%,6%,124%,88%,Cc1ccc2cc(-c3n[nH]c4ccc(NC5CCNC5)cc34)[nH]c2c1 (stereo not drawn)

# Source: ChEMBL document CHEMBL1681705, “Optimisation of ITK inhibitors through successive iterative design cycles” (Bioorg Med Chem Lett, 2011)
